Measurements published in US8933122B2, “Use of cationic surfactants as sporicidal agents” (Laboratorios Miret, S.A., priority 2008, dated 2015).

Legend:
[1] = tested on: Aspergillus niger fungical spores; experiment: Fungicide activity, UNE-EN 1275 (Example 2); assay type: cell-based; details: 20° C.; for Test of LAE fungicide activity (Na), surviving spores count: N 5 × 10^7 cfu/mL
Description: The determination of the fungicide activity of LAE has been carried out according to the European standard UNE-EN 1275: “Chemical disinfectant and antiseptic. Fungicide activity. Test method and requirements”.
The fungicide activity of a given product is defined by its capacity to reduce at least by 10^4 the amount of Aspergillus niger fungical spores in suspension, in the conditions established in the method.
The product is in contact with a suspension of fungical spores during an established period of time (60 minutes). After this time, the effect of the product is neutralized by adding Polysorbate 80 in water solution at 2%, preceding to the surviving spores count.
(§1) • 1. Spore suspension obtained from a spored-form culture of Aspergillus niger. • 2. Count of the spore suspension of Aspergillus niger. • 3. The possible toxic effect of the neutralizer on the spores in the absence of the product is valued. • 4. Evaluation of the neutralizing effect of the neutralizer over the product. • 5. Evaluation of the fungicide effect of the product. • 6. Result calculation. Results:
(§2) Tabulation of the Method and Test Validation Results (at 20° C.):
Fungicide activity is calculated as follows: R=N×0.1/Na N cfu/mL of the fungical spore suspension Na cfu/mL of the fungicide activity The calculated reduction of a solution of: • 100 μg/mL of LAE is R=3.1×10^2 cfu/mL • 200 μg/mL of LAE is R=1.3×10^3 cfu/mL • 300 μg/mL of LAE is R=1.4×10^3 cfu/mL • 400 μg/mL of LAE is R=1.7×10^3 cfu/mL • 500 μg/mL of LAE is R>10^4 cfu/mL
A product is considered fungicide if its use results in a reduction in the number of Aspergillus niger fungical spores equal to or above 10^4 after being in contact for 60 minutes in the conditions set in UNE-EN 1275.

[2] = tested on: endospores from Bacillus subtilis ATCC 6633; experiment: Sporicidal activity, quantitative suspension test EN 13704:2002 (Example 1); assay type: cell-based; details: 20° C.; for Test of LAE sporicidal activity (Na), surviving spores count: 0.3% bovine serum albumin, N 1.8 × 10^7 cfu/mL
Method: The determination of the sporicidal activity of LAE has been carried out according to the European standard EN 13704:2002 “Chemical disinfectant—Quantitative suspension test for the evaluation of sporicidal activity of chemical disinfectants used in food, industrial, domestic and institutional areas—Test method and requirements”.
A test suspension containing endospores from Bacillus subtilis ATCC 6633 was prepared from a culture grown on a nutrient agar, to which additional sporulation enhancement ingredients were added. Plates were harvested with sterile water and endospores were purified by repeated centrifugations and resuspensions in water.
Neutralizer. The neutralizer mixture consisted of 12.7% polysorbate 80, 6.0% Tamol® SN (brand of sodium salt of naphthalene-formaldehyde condensate), 1.7% lecithin, 1% peptone and 0.1% cystine. The solution was intended to neutralize any chemicals so that these would not affect subsequent growth of the bacteria.
The sporicidal activity of a given product is defined by its capacity to reduce at least by 10^3 the amount of Bacillus subtilis bacterial spores in suspension, in the conditions established in the method.
The product was in contact with a suspension of bacterial spores during an established period of time of 60 minutes. An interfering substance can be added to the suspension, in this case 0.3% bovine serum albumin in distilled water. Next, the effect of the product is neutralized by adding a neutralizer previously chosen, preceding to the surviving spores count.
as §1, with “Bacillus subtilis.” for “Aspergillus niger.”, “4.” for “5.”, “inhibitory” for “fungicide”, “5.” for “6.”, “Results: Results are expressed as the reduction of viability of the spore suspension in regards to:” for “Results:”
as §2
The sporicidal activity is calculated as follows: R=N×0.1/Na N is cfu/mL of the spore suspension. Na is cfu/mL of the sporicidal activity. The calculated reduction of a solution of: • 50 ppm of LAE is R=3.5×10^2 cfu/mL • 100 ppm of LAE is R=3.4×10^2 cfu/mL • 150 ppm of LAE is R=4.3×10^2 cfu/mL • 250 ppm of LAE is R>10^3 cfu/mL
A product is considered sporicidal if its use results in a reduction in the number of Bacillus subtilis bacterial spores equal or above 10^3 after being in contact for 60 minutes in the conditions set in […].

Escherichia coli 0157H7 = details: Gram − Bacteria; cited from earlier work
[3] = tested on: Micrococcus luteus ATCC 9631; details: Gram + Bacteria; cited from earlier work
[4] = tested on: Salmonella typhimurium ATCC16028; details: Gram − Bacteria; cited from earlier work
[5] = tested on: Bacillus subtilis ATCC 6633; details: Gram + Bacteria; cited from earlier work
[6] = tested on: Escherichia coli ATCC 8739; details: Gram − Bacteria; cited from earlier work
[7] = tested on: Leuconostoc mesenteroides CETC 912; details: Gram + Bacteria; cited from earlier work
[8] = tested on: Penicillium chrysogenum CECT 2802; details: Fungi; cited from earlier work
[9] = tested on: Citrobacter freundii ATCC 22636; details: Gram − Bacteria; cited from earlier work
[10] = animals and humans; cited from earlier work
[11] = tested on: Arthrobacter oxydans ATCC 8010; details: Gram + Bacteria; cited from earlier work
[12] = tested on: Lactobacillus delbrueckii ssp lactis CECT 372; details: Gram + Bacteria; cited from earlier work
[13] = LAE 12.5 μg/mL, 60 minutes contact
[14] = LAE 25 μg/mL, 60 minutes contact
[15] = LAE 50 μg/mL, 60 minutes contact
[16] = LAE 100 μg/mL, 60 minutes contact
[17] = LAE 300 μg/mL, 60 minutes contact

CCCCCCCCCCCC(=O)N[C@@H](CCCN=C(N)N)C(=O)OCC.Cl [LAE, ethyl ester of the lauramide of the arginine monohydrochloride]
calculated reduction R=N×0.1/Na ([1]; 100 μg/mL of LAE, 60 minutes): 3.1×10^2 cfu/mL
calculated reduction R=N×0.1/Na ([1]; 200 μg/mL of LAE, 60 minutes): 1.3×10^3 cfu/mL
calculated reduction R=N×0.1/Na ([1]; 300 μg/mL of LAE, 60 minutes): 1.4×10^3 cfu/mL
calculated reduction R=N×0.1/Na ([1]; 400 μg/mL of LAE, 60 minutes): 1.7×10^3 cfu/mL
calculated reduction R=N×0.1/Na ([1]; 500 μg/mL of LAE, 60 minutes): > 10^4 cfu/mL
concentration at which fungicide active (reduction equal to or above 10^4) ([1]; 60 minutes contact, UNE-EN 1275): ≥ 500 ppm
concentration from which a total inhibition of fungical spore germination has been observed ([1]; 60 minutes): ≥ 500 ppm
concentration from which there is inhibition of fungical spore germination ([1]; 60 minutes): ≥ 100 ppm
Test of LAE fungicide activity (Na), surviving spores count [1, 13]: >300 cfu/mL
Test of LAE fungicide activity (Na), surviving spores count [1, 14]: >300 cfu/mL
Test of LAE fungicide activity (Na), surviving spores count [1, 15]: >300 cfu/mL
Test of LAE fungicide activity (Na), surviving spores count [1, 16]: 1.6 × 10^4 cfu/mL
Test of LAE fungicide activity (Na), surviving spores count ([1]; LAE 200 μg/mL, 60 minutes contact): 3.9 × 10^3 cfu/mL
Test of LAE fungicide activity (Na), surviving spores count [1, 17]: 3.5 × 10^3 cfu/mL
Test of LAE fungicide activity (Na), surviving spores count ([1]; LAE 400 μg/mL, 60 minutes contact): 3.0 × 10^3 cfu/mL
Test of LAE fungicide activity (Na), surviving spores count ([1]; LAE 500 μg/mL, 60 minutes contact): No
Test of LAE fungicide activity (Na), surviving spores count ([1]; LAE 1000 μg/mL, 60 minutes contact): No
calculated reduction R=N×0.1/Na ([2]; 50 ppm of LAE, 60 minutes): 3.5×10^2 cfu/mL
calculated reduction R=N×0.1/Na ([2]; 100 ppm of LAE, 60 minutes): 3.4×10^2 cfu/mL
calculated reduction R=N×0.1/Na ([2]; 150 ppm of LAE, 60 minutes): 4.3×10^2 cfu/mL
calculated reduction R=N×0.1/Na ([2]; 250 ppm of LAE, 60 minutes): > 10^3 cfu/mL
concentration displaying sporicidal activity (reduction equal or above 10^3) ([2]; 60 minutes contact, EN 13704): ≥ 250 ppm
LAE concentration from which there is inhibition of spore germination ([2]; 60 minutes): ≥ 50 ppm
Test of LAE sporicidal activity (Na), surviving spores count [2, 13]: >300 cfu/mL
Test of LAE sporicidal activity (Na), surviving spores count [2, 14]: >300 cfu/mL
Test of LAE sporicidal activity (Na), surviving spores count [2, 15]: 5.2 × 10^3 cfu/mL
Test of LAE sporicidal activity (Na), surviving spores count [2, 16]: 5.3 × 10^3 cfu/mL
Test of LAE sporicidal activity (Na), surviving spores count ([2]; LAE 150 μg/mL, 60 minutes contact): 4.2 × 10^3 cfu/mL
Test of LAE sporicidal activity (Na), surviving spores count ([2]; LAE 250 μg/mL, 60 minutes contact): No
Test of LAE sporicidal activity (Na), surviving spores count [2, 17]: No
M.I.C. (Escherichia coli 0157H7): 20 ppm
M.I.C. [3]: 128 ppm
M.I.C. [4]: 32 ppm
M.I.C. [5]: 16 ppm
M.I.C. [6]: 32 ppm
M.I.C. [7]: 32 ppm
M.I.C. [8]: 128 ppm
M.I.C. [9]: 64 ppm
toxicological finding [10]: completely harmless to animals and humans
M.I.C. [11]: 64 ppm
M.I.C. [12]: 16 ppm
